Article PMC11270681, “Synthesis and Systematic Investigation of Lepidiline A and Its Gold(I), Silver(I), and Copper(I) Complexes Using In Vitro Cancer Models and Multipotent Stem Cells” (ACS Omega, 2024)
pIC50: −log10 of the molar value. Values joined by “and” are separate entries in the source; they are usually repeats but may differ in a detail not shown here. Equal values may be shown once. Read-outs that look alike come from different tables or passages of the source.

Tests used:
IGROV-1 = assay: Cytotoxicity (PrestoBlue), ovarian cancer line; assay type: cell-based; conditions: IGROV-1, 72 h incubation
Description: (§1) OVCAR-3 (OVC-3) and OVCAR-8 (OVC-8) ovarian serous adenocarcinomas, IGROV-1 ovarian endometrioid adenocarcinoma, OVCAR-5 (OVC-5) upper gastrointestinal carcinoma, MDA-MB-231 breast adenocarcinoma, and MCF-7 and T-47D invasive breast carcinomas were purchased from the Developmental Therapeutic Program of the National Cancer Institute (NIH, USA) and were cultured in an RPMI medium (Thermo Fisher). Mes-Sa and Mes-Sa/Dx5 uterine sarcoma cell lines were purchased from American Type Culture Collection (ATCC) and were kept in DMEM (Thermo Fisher). Mes-Sa B1 was transfected with the human MDR1 gene, and Mes-Sa mCherry, Mes-Sa B1 mOrange, and Mes-Sa/Dx5 eGFP were engineered to stably express the respective fluorescent proteins previously.[51] Culture media for cancer cells were supplemented with 10% fetal bovine serum, 2 mM L-glutamine, and 100 units/mL penicillin and 100 μg/mL streptomycin (Thermo Fisher). The adipose tissue and bone marrow-derived mesenchymal stem cells (AD-MSC and BM-MSC) were described previously[37] and were kept in DMEM-F12 (Gibco) supplemented with 10% fetal bovine serum, L-glutamine (Thermo Fisher), 0.1% gentamicin (Gibco, 50 mg/mL), and 16 ng/mL fibroblast growth factor 2 (Peprotech). Cells were kept at 37 °C under 5% CO2 and were negative for mycoplasma infection.
(§2) Cytotoxicities of the nonfluorescent cancer cells were assessed with a PrestoBlue cell viability reagent (Thermo Fisher). Briefly, 2500 cells/well were seeded on 384-well plates; then, the next-day drugs were added. After 72 h of incubation, PrestoBlue was added in a 10% final concentration, and after an hour of additional incubation, plates were measured with a PerkinElmer EnSpire plate reader at 555 nm/585 nm excitation/emission wavelengths. Stem cells were seeded on 96-well plates at a density of 5000 cells/well, and the following day, drugs were added for 96 h of incubation; then, viability was assessed with 10% PrestoBlue diluted in PBS. Fluorescent cancer cells were admixed before seeding on 384-well plates at an 800 cells/well density each, thus altogether 2400 cells/well. Drugs were added the following day, and the intensity of the fluorescent proteins was measured after 144 h of incubation at the respective fluorescent channels (excitation/emission, eGFP: 485 nm/510 nm; mCherry: 585 nm/610 nm; mOrange: 545 nm/567 nm). pIC50 values were calculated by a custom program written by Judit Sessler in C#. IC50 values and standard deviation were calculated from average pIC50 values from at least 3 independent measurements.

OVC-3 = assay: Cytotoxicity (PrestoBlue), ovarian cancer line; assay type: cell-based; conditions: OVC-3, 72 h incubation
Description: as §1, §2

OVC-8 = assay: Cytotoxicity (PrestoBlue), ovarian cancer line; assay type: cell-based; conditions: OVC-8, 72 h incubation
Description: as §1, §2

OVC-5 = assay: Cytotoxicity (PrestoBlue), upper gastrointestinal cancer line; assay type: cell-based; conditions: for pIC50: OVC-5, 72 h incubation, PrestoBlue
Description: as §1, §2

MCF-7 [1] = assay: Cytotoxicity (PrestoBlue), breast cancer line; assay type: cell-based; conditions: MCF-7, 72 h incubation
Description: as §1, §2

MDA-MB-231 = assay: Cytotoxicity (PrestoBlue), breast cancer line; assay type: cell-based; conditions: MDA-MB-231, 72 h incubation
Description: as §1, §2

T-47D [2] = assay: Cytotoxicity (PrestoBlue), breast cancer line; assay type: cell-based; conditions: 72 h incubation
Description: as §1, §2

Mes-Sa [3] = assay: Cytotoxicity, uterine sarcoma parental line; assay type: cell-based; conditions: fluorescent protein intensity after 144 h
Description: as §1, §2

Mes-Sa B1 = assay: Cytotoxicity, MDR1-transfected uterine sarcoma line; assay type: cell-based; conditions: Mes-Sa B1 (MDR1 transfected, ABCB1 expressing), fluorescent protein intensity after 144 h
Description: as §1, §2

Mes-Sa/Dx5 = assay: Cytotoxicity, doxorubicin-selected MDR uterine sarcoma line; assay type: cell-based; conditions: Mes-Sa/Dx5 (doxorubicin selected, ABCB1 expressing), fluorescent protein intensity after 144 h
Description: as §1, §2

AD-MSC = assay: Cytotoxicity (PrestoBlue), adipose-derived mesenchymal stem cells; assay type: cell-based; conditions: 96 h incubation
Description: as §1, §2

BM-MSC = assay: Cytotoxicity (PrestoBlue), bone marrow-derived mesenchymal stem cells; assay type: cell-based; conditions: 96 h incubation
Description: as §1, §2

im. BM-MSC = assay: Cytotoxicity (PrestoBlue), immortalized bone marrow MSC; assay type: cell-based; conditions: 96 h incubation
Description: as §1, §2

[4] = test system: 3 ovarium cancer lines (IGROV-1, OVC-3, and OVC-8); assay: Cytotoxicity, range over 3 ovarium cancer lines; assay type: cell-based; conditions: IGROV-1, OVC-3, OVC-8
Description: as §1, §2

[5] = test system: 3 breast cancer cell lines (MDA-MB-231, MCF-7 and T-47D); assay: Cytotoxicity, range over 3 breast cancer cell lines; assay type: cell-based; conditions: MDA-MB-231, MCF-7, T-47D
Description: as §1, §2

[6] = test system: Bone marrow MSCs (BM-MSC); assay: Cytotoxicity, range over bone marrow MSCs; assay type: cell-based; conditions: BM-MSC and immortalized BM-MSC
Description: as §1, §2

MCF-7 [7] = assay: H2DCFDA intracellular ROS production assay; assay type: cell-based; conditions: MCF-7, 50 μM, 4 h incubation
Description: (§3) To assess intracellular ROS production, we used a H2DCFDA cellular ROS assay kit (ab113851, Abcam) according to the manufacturer’s instructions. Briefly, 20,000 cells were seeded on 96-well plates. On the following day, cells were washed, and H2DCFDA solution, prepared by avoiding direct light, was added for 45 min. Next, cells were washed, and 50 μM samples of test compounds were aspirated on the cells in a complete and phenol red-free medium (FluoroBrite, Thermo Fisher). At each hour, fluorescence of 2′,7′-dichlorofluorescein (DCF) was measured at 484 nm/535 nm excitation/emission wavelengths. Values were normalized to 0 h measurements. Values indicate at least 3 independent measurements.

Mes-Sa [8] = assay: H2DCFDA intracellular ROS production assay; assay type: cell-based; conditions: 50 μM, 4 h incubation
Description: as §3

T-47D [9] = assay: H2DCFDA intracellular ROS production assay; assay type: cell-based; conditions: 50 μM, 4 h incubation
Description: as §3

[10] = Stability in serum-free culture medium by HPLC-UV; assay type: physicochemical; conditions: for AUC (HPLC-UV), single measurements 1-5 / AUC (HPLC-UV), average: serum-free culture medium
Description: Stability of the metal complexes in solution was measured in serum-free culture medium. The compounds were dissolved in DMSO right before the experiment. Solutions of Cu-LA and Ag-LA contained 1% final volume of DMSO, while Au-LA contained 30% DMSO. Samples were taken right after dilution, and after 1 h, 2 h, 4 h, 8 h, 16 h, 32 and 48 h, and measured by HPLC-UV.

MSCs = assay: Cytotoxicity, range over MSCs; assay type: cell-based; conditions: AD-MSC, BM-MSC, immortalized BM-MSC
Description: as §1
(§4) Cytotoxicities of the nonfluorescent cancer cells were assessed with a PrestoBlue cell viability reagent (Thermo Fisher). Briefly, 2500 cells/well were seeded on 384-well plates; then, the next-day drugs were added. After 72 h of incubation, PrestoBlue was added in a 10% final concentration, and after an hour of additional incubation, plates were measured with a PerkinElmer EnSpire plate reader at 555 nm/585 nm excitation/emission wavelengths. Stem cells were seeded on 96-well plates at a density of 5000 cells/well, and the following day, drugs were added for 96 h of incubation; then, viability was assessed with 10% PrestoBlue diluted in PBS. […] IC50 values and standard deviation were calculated from average pIC50 values from at least 3 independent measurements.

cancer lines = assay: Cytotoxicity, range over cancer lines; assay type: cell-based
Description: as §1, §4

[11] = Homo sapiens, MES-SA/Dx5, 144 h

Cc1c(C)n(Cc2ccccc2)[c](=[Ag][Cl])n1Cc1ccccc1 [Ag-LA, Chloro-(1,3-dibenzyl-4,5-dimethyl-imidazol-2-ylidene)silver] showed a pIC50 (IGROV-1) of 4.82, a pIC50 (OVC-3) of 4.79 and a pIC50 (OVC-8) of 4.76. For the same compound, the pIC50 (OVC-5) was 4.39, the “Lower susceptibility of OVC-5 compared to the ovarian cancer lines” value (OVC-5; OVC-5 vs ovarian cancer lines) was 2.5 fold and the pIC50 (MCF-7 [1]) was 4.96. It also gave a pIC50 (MDA-MB-231) of 4.92, a pIC50 (T-47D [2]) of 5.23 and a pIC50 (Mes-Sa [3]) of 5.10. It also gave a pIC50 (Mes-Sa B1) of 4.69, a pIC50 (Mes-Sa/Dx5) of 4.92 and a pIC50 (AD-MSC) of 4.81. It also gave a pIC50 (BM-MSC) of 4.80, a pIC50 (im. BM-MSC) of 4.87 and a pIC50 [4] of 4.76 to 4.98. For the same compound, the pIC50 [5] was 4.92 to 5.24, the pIC50 [6] was 4.80 to 5.24 and the “More ROS compared to the medium” value (MCF-7 [7]) was about 30%. For the same compound, the “More ROS compared to the medium” value (Mes-Sa [8]) was about 50%, the “Intracellular ROS production compared to the medium” value (T-47D [9]) was “ROS was not elevated” and the “AUC (HPLC-UV), single measurements 1-5” value ([10]; 0 h) was 898 and 911 and 926 and 921 and 877. For the same compound, the “AUC (HPLC-UV), average” value ([10]; 0 h, Cu-LA, Ag-LA 1% DMSO, Au-LA 30% DMSO) was 907, the “AUC (HPLC-UV), average” value ([10]; 1 h) was 922 and the “AUC (HPLC-UV), single measurements 1-5” value ([10]; 1 h) was 923 and 921 and 920. The “AUC (HPLC-UV), average” value ([10]; 2 h) was 923, the “AUC (HPLC-UV), single measurements 1-5” value ([10]; 2 h) was 922 and 921 and 923 and 928 and the “AUC (HPLC-UV), average” value ([10]; 4 h) was 924. The “AUC (HPLC-UV), single measurements 1-5” value ([10]; 4 h) was 921 and 925 and 927 and 920 and 928, the “AUC (HPLC-UV), average” value ([10]; 8 h) was 923 and the “AUC (HPLC-UV), single measurements 1-5” value ([10]; 8 h) was 922 and 924 and 923. The “AUC (HPLC-UV), average” value ([10]; 16 h) was 922, the “AUC (HPLC-UV), single measurements 1-5” value ([10]; 16 h) was 921 and 922 and the “AUC (HPLC-UV), average” value ([10]; 32 h) was 925. For the same compound, the “AUC (HPLC-UV), single measurements 1-5” value ([10]; 32 h) was 925 and 926 and 924, the “AUC (HPLC-UV), average” value ([10]; 48 h) was 921 and the “AUC (HPLC-UV), single measurements 1-5” value ([10]; 48 h) was 917 and 922 and 920. The “Stability in serum-free culture medium” value ([10]; HPLC-UV, observed 48 h) was “stable”.
For COc1cccc2c1C(=O)c1c(O)c3c(c(O)c1C2=O)C[C@@](O)(C(=O)CO)C[C@@H]3O[C@H]1C[C@H](N)[C@H](O)[C@H](C)O1 [Doxorubicin, doxorubicin, reference compound], the pIC50 (OVC-8) was 6.72, the pIC50 (MDA-MB-231; Homo sapiens) was 6.66 and the pIC50 (Mes-Sa [3]; Homo sapiens) was 7.42. For the same compound, the pIC50 (Mes-Sa/Dx5; [11]) was 5.62, the pIC50 (AD-MSC; Mesenchymal stem cells, 96 h) was 6.89 and the pIC50 (BM-MSC; BMMSC) was 7.00. For the same compound, the pIC50 (im. BM-MSC; BMMSC) was 7.17, the pIC50 (MSCs; BMMSC) was 6.89 to 7.17 and the pIC50 (cancer lines; read-out: IC50 range over non-MDR cancer cells) was 6.66 to 7.47.
In the case of COc1cc([C@@H]2c3cc4c(cc3[C@@H](O[C@@H]3O[C@@H]5CO[C@@H](C)O[C@H]5[C@H](O)[C@H]3O)[C@H]3COC(=O)[C@H]23)OCO4)cc(OC)c1O [Etoposide, etoposide, reference compound], the pIC50 (Mes-Sa [3]; Homo sapiens) was 6.59, the pIC50 (Mes-Sa B1; Homo sapiens) was 5.93 and the pIC50 (Mes-Sa/Dx5; [11]) was 5.77.
In the case of CC(=O)OC[C@H]1O[C@@H]([S-])[C@H](OC(C)=O)[C@@H](OC(C)=O)[C@@H]1OC(C)=O.CCP(CC)CC.[Au+] [Auranofin, auranofin, reference compound], the pIC50 (IGROV-1) was 5.71, the pIC50 (OVC-3) was 5.77 and the pIC50 (OVC-8) was 5.64. It also gave a pIC50 (OVC-5) of 5.16, a pIC50 (OVC-5; listed as auranofin) of 5.15 and a pIC50 (MCF-7 [1]) of 5.55. For the same compound, the pIC50 (MDA-MB-231) was 5.94, the pIC50 (T-47D [2]) was 5.64 and the pIC50 (Mes-Sa [3]) was 5.66. It also gave a pIC50 (Mes-Sa B1) of 5.49, a pIC50 (Mes-Sa/Dx5) of 5.85 and a pIC50 (AD-MSC) of 5.67. For the same compound, the pIC50 (BM-MSC) was 5.54, the pIC50 (im. BM-MSC) was 5.58 and the pIC50 [4] was 5.64 to 5.77. It also gave a pIC50 [5] of 5.55 to 5.92, a pIC50 (MSCs) of 5.54 to 5.66 and a pIC50 (cancer lines; all cancer lines tested, read-out: IC50 range over cancer lines) of 5.15 to 5.92.
